Assay results from PubChem BioAssay AID256 (DTP/NCI, 2004).
Values joined by “and” are separate entries in the source; they are usually repeats but may differ in a detail not shown here. Equal values may be shown once. Toxic doses and inconclusive results are not listed. Rule for the calls: active = survival T/C of 150% or more; inactive = T/C below 125% in these data.

Test system: CD2F1 mice, L1210 leukemia ip, survival T/C
Assay: NCI In Vivo Anticancer Drug Screen. Data for tumor model L1210 Leukemia (intraperitoneal) in CD2F1 (CDF1) mice
Settings: endpoint: mean survival time, higher = longer survival
Method in brief: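 Antitumor effect is scored in animals hosting a serially transplanted tumor. Values compare compound-dosed animals against vehicle-only controls as a simple quotient.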

[1] = dose: 100.0 mg/kg/injection, schedule: Q04DX002 (ip), vehicle: saline with Tween-80
[2] = dose: 200.0 mg/kg/injection, schedule: Q04DX002 (ip), vehicle: saline with Tween-80
[3] = dose: 400.0 mg/kg/injection, schedule: Q04DX002 (ip), vehicle: saline with Tween-80
[4] = dose: 100.0 mg/kg/injection, schedule: Q01DX009 (ip), vehicle: saline with Tween-80
[5] = dose: 100.0 mg/kg/injection, schedule: Q04DX003 (ip), vehicle: saline with Tween-80
[6] = dose: 200.0 mg/kg/injection, schedule: Q01DX009 (ip), vehicle: saline with Tween-80
[7] = dose: 200.0 mg/kg/injection, schedule: Q04DX003 (ip), vehicle: saline with Tween-80
[8] = dose: 400.0 mg/kg/injection, schedule: Q01DX009 (ip), vehicle: saline with Tween-80
[9] = dose: 400.0 mg/kg/injection, schedule: Q04DX003 (ip), vehicle: saline with Tween-80
[10] = dose: 50.0 mg/kg/injection, schedule: Q01DX009 (ip), vehicle: Klucel (hydroxypropylcellulose) (HPC)
[11] = dose: 100.0 mg/kg/injection, schedule: Q01DX009 (ip), vehicle: Klucel (hydroxypropylcellulose) (HPC)
[12] = dose: 200.0 mg/kg/injection, schedule: Q01DX009 (ip), vehicle: Klucel (hydroxypropylcellulose) (HPC)
[13] = dose: 100.0 mg/kg/injection, schedule: Q01DX001 (ip), vehicle: saline with Tween-80
[14] = dose: 100.0 mg/kg/injection, schedule: Q04DX003 (ip), vehicle: saline
[15] = dose: 200.0 mg/kg/injection, schedule: Q04DX003 (ip), vehicle: saline
[16] = dose: 400.0 mg/kg/injection, schedule: Q04DX003 (ip), vehicle: saline

Measured: T/C

Cc1cccc(NC(=O)COc2cc(Cl)c(Cl)cc2Cl)c1
inactive: [1] 98 % of control | [2] 98 % of control | [3] 94 % of control

CC1SCCCS1
inactive: dose: 12.5 mg/kg/injection, schedule: Q04DX003 (ip), vehicle: other 106 % of control | dose: 25.0 mg/kg/injection, schedule: Q04DX003 (ip), vehicle: other 104 % of control | dose: 50.0 mg/kg/injection, schedule: Q04DX003 (ip), vehicle: other 102 % of control | dose: 100.0 mg/kg/injection, schedule: Q04DX003 (ip), vehicle: other 102 % of control | dose: 200.0 mg/kg/injection, schedule: Q04DX003 (ip), vehicle: other 97 % of control

COc1ccc(OCc2ccc(OC)c(OC)c2)cc1
inactive: [1] 91 % of control | [2] 87 % of control | [3] 91 % of control

CC(=O)Nc1ncc2ccccc2c1-c1ccc(N(CCOS(=O)(=O)c2ccc(C)cc2)CCOS(=O)(=O)c2ccc(C)cc2)cc1
inactive: dose: 25.0 mg/kg/injection, schedule: Q04DX003 (ip), vehicle: DMSO 108 % of control | dose: 50.0 mg/kg/injection, schedule: Q04DX003 (ip), vehicle: DMSO 104 % of control | dose: 100.0 mg/kg/injection, schedule: Q04DX003 (ip), vehicle: DMSO 110 % of control | dose: 200.0 mg/kg/injection, schedule: Q04DX003 (ip), vehicle: DMSO 116 % of control | dose: 400.0 mg/kg/injection, schedule: Q04DX003 (ip), vehicle: DMSO 108 % of control

COC(C(N)=O)(c1ccccc1)C(F)(F)F (stereo not given)
inactive: [4] 101 % of control | [5] 102 % of control | [6] 105 % of control | [7] 100 % of control | [8] 94 % of control | [9] 89 % of control

COc1ccc(C(CO)=C(c2ccc(OC)cc2)c2ccc(OC)cc2)cc1
inactive: [5] 103 % of control | [7] 94 % of control | [9] 95 % of control

Cc1cc(C)c(/C(O)=C/C(=S)N2CCOCC2)c(C)c1
inactive: [5] 98 % of control | [7] 98 % of control | [9] 98 % of control

O=C(O)CSCc1ccc(Cl)cc1Cl
inactive: [10] 98 % of control | [11] 87 % of control | [12] 93 % of control

O=[N+]([O-])c1ccc(Nc2ccc(Br)cc2)c([N+](=O)[O-])c1
inactive: [5] 95 % of control | [7] 93 % of control

Cc1ccc(Cl)c2ccccc12
inactive: dose: 12.5 mg/kg/injection, schedule: Q01DX009 (ip), vehicle: saline with Tween-80 97 % of control | dose: 25.0 mg/kg/injection, schedule: Q01DX009 (ip), vehicle: saline with Tween-80 100 % of control | dose: 50.0 mg/kg/injection, schedule: Q01DX009 (ip), vehicle: saline with Tween-80 97 % of control | [4] 94 % of control

CN1CCCC1CCNc1nc(-c2ccc(C(Cl)(Cl)Cl)cc2)nc(C(Cl)(Cl)Cl)n1 (stereo not given)
inactive: [13] 95 % of control | [4] 95 % of control | dose: 200.0 mg/kg/injection, schedule: Q01DX001 (ip), vehicle: saline with Tween-80 95 % of control | dose: 400.0 mg/kg/injection, schedule: Q01DX001 (ip), vehicle: saline with Tween-80 94 % of control

Cc1cccc(OP(=O)(c2ccccc2)c2ccccc2)c1
inactive: [5] 98 % of control | [7] 98 % of control | [9] 103 % of control

O=C(O)CCC(=O)c1cccc(O)c1
inactive: dose: 100.0 mg/kg/injection, schedule: Q01DX001 (ip), vehicle: saline 103 % of control | dose: 200.0 mg/kg/injection, schedule: Q01DX001 (ip), vehicle: saline 104 % of control | dose: 400.0 mg/kg/injection, schedule: Q01DX001 (ip), vehicle: saline 103 % of control

CN(C)C(=O)Nc1cc(Cl)ccc1Cl
inactive: [1] 97 % of control | [2] 108 % of control | [3] 120 % of control

c1ccc2snnc2c1
inactive: dose: 100.0 mg/kg/injection, schedule: Q01DX001 (ip), vehicle: other 97 % of control | dose: 200.0 mg/kg/injection, schedule: Q01DX001 (ip), vehicle: other 103 % of control | dose: 400.0 mg/kg/injection, schedule: Q01DX001 (ip), vehicle: other 88 % of control

CC(C)N=C1N(C(C)C)C([O-])=N[N+]1(C)C
inactive: dose: 100.0 mg/kg/injection, schedule: Q01DX009 (ip), vehicle: saline 101 % of control | [14] 108 % of control | dose: 200.0 mg/kg/injection, schedule: Q01DX009 (ip), vehicle: saline 101 % of control | [15] 96 % of control | dose: 400.0 mg/kg/injection, schedule: Q01DX009 (ip), vehicle: saline 101 % of control | [16] 107 % of control

O=[P+](O)C(O)c1ccccc1 (stereo not given)
inactive: [14] 108 % of control | [15] 111 % of control | [16] 117 % of control

O=C(CC(=O)c1ccccc1)c1ccccc1.O=C(CC(=O)c1ccccc1)c1ccccc1.[Pd]
inactive: dose: 3.13 mg/kg/injection, schedule: Q04DX003 (ip), vehicle: distilled water + Tween-80 96 % of control | dose: 6.25 mg/kg/injection, schedule: Q04DX003 (ip), vehicle: distilled water + Tween-80 98 % of control | dose: 12.5 mg/kg/injection, schedule: Q04DX003 (ip), vehicle: distilled water + Tween-80 94 % of control | dose: 25.0 mg/kg/injection, schedule: Q04DX003 (ip), vehicle: distilled water + Tween-80 98 % of control | dose: 50.0 mg/kg/injection, schedule: Q04DX003 (ip), vehicle: distilled water + Tween-80 93 % of control | dose: 100.0 mg/kg/injection, schedule: Q04DX003 (ip), vehicle: distilled water + Tween-80 89 % of control | dose: 200.0 mg/kg/injection, schedule: Q04DX003 (ip), vehicle: distilled water + Tween-80 107 % of control

CC(C)=CCO
inactive: [14] 105 % of control | [15] 94 % of control | [16] 94 % of control

CC(=O)C(C(C)=O)C(c1ccccc1Cl)C(C(C)=O)C(C)=O
inactive: [4] 98 % of control | [6] 102 % of control | [8] 95 % of control

NCc1ccc(-c2nc3ncnc(N)c3[nH]2)cc1
inactive: dose: 3.13 mg/kg/injection, schedule: Q01DX001 (ip), vehicle: saline with Tween-80 108 % of control | dose: 6.25 mg/kg/injection, schedule: Q01DX001 (ip), vehicle: saline with Tween-80 102 % of control | dose: 12.5 mg/kg/injection, schedule: Q01DX001 (ip), vehicle: saline with Tween-80 100 % of control and 110 % of control | dose: 25.0 mg/kg/injection, schedule: Q01DX001 (ip), vehicle: saline with Tween-80 102 % of control | dose: 50.0 mg/kg/injection, schedule: Q01DX001 (ip), vehicle: saline with Tween-80 109 % of control | [13] 106 % of control and 110 % of control

CC1=C(C)CC(C(Cl)(Cl)Cl)C([N+](=O)[O-])C1 (stereo not given)
inactive: [5] 98 % of control | [7] 96 % of control

CCOC(=O)C1CC2(CC(C)C1=O)OCCO2 (stereo not given)
inactive: dose: 100.0 mg/kg/injection, schedule: Q04DX003 (ip), vehicle: alcohol 97 % of control | dose: 200.0 mg/kg/injection, schedule: Q04DX003 (ip), vehicle: alcohol 97 % of control | dose: 400.0 mg/kg/injection, schedule: Q04DX003 (ip), vehicle: alcohol 92 % of control

O=C1NC(c2ccccc2Cl)Nc2ccccc21 (stereo not given)
inactive: [10] 91 % of control | [11] 107 % of control | [12] 93 % of control | dose: 400.0 mg/kg/injection, schedule: Q01DX009 (ip), vehicle: Klucel (hydroxypropylcellulose) (HPC) 93 % of control
